In patent US20020090402A1, “Pharmaceutical composition against type I allergy and the preparation thereof” (priority 2000, published 2002):

System: passive skin sensitization for the rats
Assay: anti-allergic pharmacodynamics: passive skin sensitization of rats (anti-trichosanthes serum, Evans blue, 620 nm colorimetry)
Type: in vivo, Wistar male rats
Details: rat, 5 mg/Kg IV one minute before second sensitization
From the text: Research of anti-allergic pharmacodynamics of the pharmaceutical composition of the present invention
Wistar male rats with body weight of 100˜120 g were used, which were provided by the Experimental Animal Center of the Chinese Academy of Medical Sciences.
1. Tablets of this pharmaceutical composition obtained from Example 1 of this invention. It was made into a suspension with 0.5%CMC-Na.
2. Positive contrast medicament: disodium chromoglycate (produced by Shanghai Pharmaceutical Factory No. 5). It is dissolved with normal saline when it is used.
After the rats were divided in groups at random, they were lavaged and dosed with the above-mentioned pharmaceutical composition of this invention according to 6 g/Kg and 3 g/Kg, once a day, continuously for 10 days. After hair on their backs of all groups of animals was removed, said animals were sensitized for the first time with hypodermic injection with anti-trichosanthes serum. At the same time, the dosing groups took the pharmaceutical composition according to 6 g/Kg, two hours before the second sensitization. The positive contrast groups were dosed with IV of disodium chromoglycate in accordance of 5 mg/Kg, one minute before the second sensitization was made. All groups of animals were given with IV of 1% EVANSLAN (including trichosanthes protein of 1 mg/ml) in accordance with 1 mg/Kg for the second sensitization. […]

For `O=C([O-])c1cc(=O)c2c(OCC(O)COc3cccc4oc(C(=O)[O-])cc(=O)c34)cccc2o1.[Na+].[Na+]` [Positive contrast, disodium chromoglycate], the Inhibition rate was 78.2% and the “OD value (X ± SD)” value (620 nm) was 0.19 ± 0.11.
